Measured values taken from patent US6686393B1, “Pharmaceutical compositions having antiviral activity against human cytomegalovirus” (Murdock International Corporation, priority 1990, dated 2004).
Several values for one entry are separate records, joined by “and”; a condition that tells them apart may be missing. Equal entries are not always repeated. Where two headings read alike, the source gives them in different places.

Assays:
[1] = test system: human cytomegalovirus (HCMV), strain AD-169; assay: Antiviral test (plaque reduction) versus HCMV, strain AD-169, in MRC-5 cells; format: cell-based; settings: for Percent Inhibition of Plaque Numbers (Compared to Virus Controls): Example 2
[2] = Human betaherpesvirus 5, AD169, MRC5, read-out: Percent Inhibition of Plaque Numbers (Compared to Virus Controls)
[3] = Human betaherpesvirus 5, AD169, MRC5, read-out: % Reduction

With Cc1cc(O)c2c(c1)C(C1c3cc(C)cc(O)c3C(=O)c3c(O)cc(O)cc31)c1cc(O)cc(O)c1C2=O (centres unmarked) [Emodin Bianthrone (d,1), emodin bianthrone] the “Percent Inhibition of Plaque Numbers (Compared to Virus Controls)” value (shortened to “Percent Inhibition of Plaque Numbers”) ([1]; 0.01 μg/ml) was 0%, the “Percent Inhibition of Plaque Numbers” value ([1]; 0.032 μg/ml) was 0% and the “Percent Inhibition of Plaque Numbers” value ([1]; 0.1 μg/ml) was 0%. The “Percent Inhibition of Plaque Numbers” value ([1]; 0.32 μg/ml) was 0%, the “Percent Inhibition of Plaque Numbers” value ([1]; 1.0 μg/ml) was 33% and the “Percent Inhibition of Plaque Numbers” value ([1]; 3.2 μg/ml) was “toxic”. The “Percent Inhibition of Plaque Numbers” value ([1]; 10 μg/ml, ethanol stock (protohypericin in DMSO), cells exposed 6 or more days) was “toxic”, the CD50 (MRC-5 cells; Example 2, cells exposed 6 or more days) was 1.2 µg/mL and the CD50 (MRC-5 cells; Table 9 summary, two values = two experiments) was 1.2 µg/mL.

In the case of COc1cc(O)c2c(c1)C(=O)c1cc(C)cc(O)c1C2=O [Physcione, physcione], the “% Reduction” value ([1]; 0.01 μg/ml, Example 6) was 0%, the “Number of Plaques” value ([1]; 0.01 μg/ml, Example 6) was 17 and the “% Reduction” value ([1]; 0.032 μg/ml, Example 6) was 0%. For the same molecule, the “Number of Plaques” value ([1]; 0.032 μg/ml, Example 6) was 14, the “% Reduction” value ([1]; 0.1 μg/ml, Example 6) was 0% and the “Number of Plaques” value ([1]; 0.1 μg/ml, Example 6) was 19. For the same molecule, the “% Reduction” value ([1]; 0.32 μg/ml, Example 6) was 0%, the “Number of Plaques” value ([1]; 0.32 μg/ml, Example 6) was 18 and the “% Reduction” value ([1]; 1.0 μg/ml, Example 6) was 0%. The “Number of Plaques” value ([1]; 1.0 μg/ml, Example 6) was 18, the “% Reduction” value ([1]; 3.2 μg/ml, Example 6) was 0% and the “Number of Plaques” value ([1]; 3.2 μg/ml, Example 6) was 25. For the same molecule, the “% Reduction” value ([1]; 10.0 μg/ml, Example 6) was 0%, the “Number of Plaques” value ([1]; 10.0 μg/ml, Example 6) was 31 and the CD50 (MRC-5 cells) was greater than 10 µg/mL.

O=C1c2ccc(O)cc2C(=O)c2ccc(O)cc21 [Anthraflavic Acid, anthraflavic acid] gave an inhibition at 0.01 µg/mL [1, 2] of 0%, an inhibition at 0.032 µg/mL [1, 2] of 0% and an inhibition at 0.1 µg/mL [1, 2] of 0%. It also gave an inhibition at 0.32 µg/mL [1, 2] of 0%, an inhibition at 1 µg/mL [1, 2] of 11% and an inhibition at 3.2 µg/mL [1, 2] of 15%. The CD50 (MRC-5 cells; human) was 3.4 µg/mL.

O=C1c2ccccc2C(=O)c2ccccc21 [Anthraquinone, anthraquinone] was tested, and the “Number of Plaques” value ([1]; 0.01 μg/ml, Example 5) was 36, the “Number of Plaques” value ([1]; 0.032 μg/ml, Example 5) was 27 and the “Number of Plaques” value ([1]; 0.1 μg/ml, Example 5) was 30. For the same molecule, the “Number of Plaques” value ([1]; 0.32 μg/ml, Example 5) was 32, the “Number of Plaques” value ([1]; 1.0 μg/ml, Example 5) was 34 and the “Number of Plaques” value ([1]; 3.2 μg/ml, Example 5) was 36. For the same molecule, the “Number of Plaques” value ([1]; 10.0 μg/ml, Example 5) was 55, the inhibition at 0.01 µg/mL ([1]; Human betaherpesvirus 5, AD169, MRC5, 0.01 μg/ml, Example 5, read-out: % Reduction) was 20% and the inhibition at 0.032 µg/mL ([1]; Human betaherpesvirus 5, AD169, MRC5, 0.032 μg/ml, Example 5, read-out: % Reduction) was 27%. For the same molecule, the inhibition at 0.1 µg/mL ([1]; Human betaherpesvirus 5, AD169, MRC5, 0.1 μg/ml, Example 5, read-out: % Reduction) was 33%, the inhibition at 0.32 µg/mL ([1]; Human betaherpesvirus 5, AD169, MRC5, 0.32 μg/ml, Example 5, read-out: % Reduction) was 29% and the inhibition at 1 µg/mL ([1]; Human betaherpesvirus 5, AD169, MRC5, 1.0 μg/ml, Example 5, read-out: % Reduction) was 24%. It also gave an inhibition at 3.2 µg/mL ([1]; Human betaherpesvirus 5, AD169, MRC5, 3.2 μg/ml, Example 5, read-out: % Reduction) of 20%, an inhibition at 10 µg/mL ([1]; Human betaherpesvirus 5, AD169, MRC5, 10.0 μg/ml, Example 5, read-out: % Reduction) of 0% and a CD50 (MRC-5 cells; human) greater than 10 µg/mL.

O=C1c2c(O)cccc2C([C@@H]2O[C@H](CO)[C@@H](O)[C@H](O)[C@H]2O)c2cc(CO)cc(O)c21 (some centres unmarked) [Aloin, aloin] was tested, and the “Number of Plaques” value [1] was 24 and 26 and 20 and 16, the inhibition at 0.01 µg/mL [1, 3] was 0% and the inhibition at 0.032 µg/mL [1, 3] was 0%. The inhibition at 0.1 µg/mL [1, 3] was 0%, the inhibition at 0.32 µg/mL [1, 3] was 0% and the inhibition at 1 µg/mL [1, 3] was 0%. The inhibition at 3.2 µg/mL [1, 3] was 0%, the inhibition at 10 µg/mL [1, 3] was 0% and the CD50 (MRC-5 cells; human) was greater than 10 µg/mL.

Work on O=C1c2ccccc2C(=O)c2c(O)c(O)cc(O)c21 [Purpurin, purpurin] yielded an inhibition at 0.01 µg/mL [1, 3] of 0%, an inhibition at 0.032 µg/mL [1, 3] of 0% and an inhibition at 0.1 µg/mL [1, 3] of 0%. The inhibition at 0.32 µg/mL [1, 3] was 0%, the inhibition at 1 µg/mL [1, 3] was 0% and the inhibition at 3.2 µg/mL [1, 3] was 0%. For the same molecule, the CD50 (MRC-5 cells; human) was 5.6 µg/mL.
